Experimental data: paper PMC6681697, “One-Step ^18F-Labeling and Preclinical Evaluation of Prostate-Specific Membrane Antigen Trifluoroborate Probes for Cancer Imaging” (Journal of Nuclear Medicine, 2019)

How the values were obtained:
LNCaP xenografts [1] = experiment: Ex vivo biodistribution and blocking studies in mice bearing LNCaP xenografts; details: for tumor uptake: LNCaP tumor
Outline: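 Male NODSCID IL2RγKO mice carried subcutaneous LNCaP tumours (1 × 10^7 cells, 5–8 mm) and received 1–3 MBq radiotracer, unblocked or blocked. Organs and blood taken at 60 min were weighed and γ-counted, giving %ID/g; blocked and unblocked groups were compared by multiple t tests.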

[2] = Distribution coefficient (LogD7.4), shake flask method; assay type: physicochemical; details: n-octanol / phosphate buffer 0.1 M pH 7.4; n = 3
Outline: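 ^18F-labeled tracer partitioned between n-octanol and 0.1 M phosphate buffer pH 7.4, vortexed 2 min, centrifuged 3,000g for 10 min. Both phases counted by γ-counter; LogD7.4 taken as log10 of octanol/buffer count ratio.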

PSMA = molecular target: T1, PSMA (Homo sapiens, UniProt Q04609); experiment: In vitro competition binding assay on LNCaP cells with ^18F-DCFPyL as radioligand; details: LNCaP cells, 0.1 nM ^18F-DCFPyL radioligand, 1 h at 37°C; n = 3
T1 construct: because it expresses PSMA endogenously and is commonly used to evaluate PSMA-targeting radiotracers; endogenous in cells; host or cells: LNCaP cells
T1 sequence (Q04609 whole entry): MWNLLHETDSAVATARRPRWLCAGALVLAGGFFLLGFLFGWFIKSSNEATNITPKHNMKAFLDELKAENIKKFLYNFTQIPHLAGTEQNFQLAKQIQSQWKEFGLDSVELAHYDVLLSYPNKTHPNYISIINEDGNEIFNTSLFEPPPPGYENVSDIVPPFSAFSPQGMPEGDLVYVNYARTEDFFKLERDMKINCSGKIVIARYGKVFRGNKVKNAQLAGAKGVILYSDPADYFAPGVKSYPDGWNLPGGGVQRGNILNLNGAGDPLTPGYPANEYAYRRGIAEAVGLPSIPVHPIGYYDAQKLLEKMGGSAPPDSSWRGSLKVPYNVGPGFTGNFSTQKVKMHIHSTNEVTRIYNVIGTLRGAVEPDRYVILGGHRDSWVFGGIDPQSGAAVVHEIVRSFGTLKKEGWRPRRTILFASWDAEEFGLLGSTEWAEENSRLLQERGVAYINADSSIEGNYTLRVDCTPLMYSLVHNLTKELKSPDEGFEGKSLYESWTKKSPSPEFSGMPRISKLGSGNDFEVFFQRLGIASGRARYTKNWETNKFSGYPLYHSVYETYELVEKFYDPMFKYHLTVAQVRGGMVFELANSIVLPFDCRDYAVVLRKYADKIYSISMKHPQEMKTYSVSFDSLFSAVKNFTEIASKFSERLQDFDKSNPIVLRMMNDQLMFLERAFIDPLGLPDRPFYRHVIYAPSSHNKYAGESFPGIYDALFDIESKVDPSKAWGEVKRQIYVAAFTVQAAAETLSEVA
Outline: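 Ki values derive from one-site competition fits of γ-counted, cell-associated radioactivity. Cells were washed cold, then harvested by trypsin.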

LNCaP xenografts [3] = experiment: PET/CT imaging of LNCaP tumor-bearing mice; assay type: in vivo; details: 1 h after injection
Description: Imaging and biodistribution experiments were performed using NODSCID IL2RγKO male mice. All experiments were conducted according to the guidelines established by the Canadian Council on Animal Care and approved by the Animal Ethics Committee of the University of British Columbia. Mice were anesthetized by inhalation with 2% isoflurane in oxygen and implanted subcutaneously with 1 × 10^7 LNCaP cells behind the left shoulder. The mice were imaged or used in biodistribution studies once the tumor reached 5–8 mm in diameter (5–6 wk).
PET imaging experiments were conducted using an Inveon preclinical PET/CT scanner (Siemens). Compounds ^18F-1,2,3,5,7, and 8 were formulated in 10% ethanol/normal saline, whereas ^18F-4 and 6 were formulated in 10% ethanol/phosphate-buffered saline. […] For blocking controls, the mice were coinjected with DCFPyL (0.5 mg). After injection, the mice were allowed to recover and roam freely in their cage. After 50 min, the mice were sedated by 2% isoflurane inhalation and positioned in the scanner. A CT scan was performed first for localization and attenuation correction. This was followed by a 10-min static PET scan. The mice were kept warm by a heating pad during image acquisition. […]

[4] = 1 h blocked (coinjection of DCFPyL 0.5 mg)

In the case of `C[N+](C)(Cc1cn(CC(=O)N[C@@H](CCC(=O)O)C(=O)NCCCC[C@H](NC(=O)[C@H](CCC(=O)O)NC(=O)Cn2cc(C[N+](C)(C)C[B-](F)(F)F)nn2)C(=O)NC[C@H]2CC[C@H](C(=O)N[C@@H](Cc3ccc4ccccc4c3)C(=O)NCCCC[C@H](NC(=O)N[C@@H](CCC(=O)O)C(=O)O)C(=O)O)CC2)nn1)C[B-](F)(F)F` [^18F-8], the “T/B (tumor-to-blood ratio)” value (LNCaP xenografts [1]; 1 h after injection, unblocked) is reported as 30.95 ± 7.76, the “T/K (tumor-to-kidney ratio)” value (LNCaP xenografts [1]; 1 h after injection, unblocked) is reported as 0.14 ± 0.07 and the “T/M (tumor-to-muscle ratio)” value (LNCaP xenografts [1]; 1 h after injection, unblocked) is reported as 67.23 ± 25.93. It also gave an adrenal uptake (LNCaP xenografts [1]; 1 h after injection, unblocked) of 7.72 ± 2.70 %ID/g, a blood uptake (LNCaP xenografts [1]; 1 h after injection, unblocked) of 0.56 ± 0.11 %ID/g and a bone uptake (LNCaP xenografts [1]; 1 h after injection, unblocked) of 0.25 ± 0.10 %ID/g. The brain uptake (LNCaP xenografts [1]; 1 h after injection, unblocked) was 0.02 ± 0.00 %ID/g, the fat uptake (LNCaP xenografts [1]; 1 h after injection, unblocked) was 0.80 ± 0.28 %ID/g and the heart uptake (LNCaP xenografts [1]; 1 h after injection, unblocked) was 0.28 ± 0.07 %ID/g. It also gave an intestine uptake (LNCaP xenografts [1]; 1 h after injection, unblocked) of 0.32 ± 0.06 %ID/g, a kidney uptake (LNCaP xenografts [1]; 1 h after injection, unblocked) of 143.85 ± 61.73 %ID/g and a liver uptake (LNCaP xenografts [1]; 1 h after injection, unblocked) of 0.20 ± 0.05 %ID/g. The lung uptake (LNCaP xenografts [1]; 1 h after injection, unblocked) was 1.97 ± 0.34 %ID/g, the muscle uptake (LNCaP xenografts [1]; 1 h after injection, unblocked) was 0.27 ± 0.06 %ID/g and the pancreas uptake (LNCaP xenografts [1]; 1 h after injection, unblocked) was 0.46 ± 0.15 %ID/g. The spleen uptake (LNCaP xenografts [1]; 1 h after injection, unblocked) was 6.47 ± 2.17 %ID/g, the stomach uptake (LNCaP xenografts [1]; 1 h after injection, unblocked) was 0.11 ± 0.03 %ID/g and the testes uptake (LNCaP xenografts [1]; 1 h after injection, unblocked) was 0.57 ± 0.12 %ID/g. The “tumor uptake compared with ^18F-DCFPyL” value (LNCaP xenografts [1]; 1 h after injection, 1-way ANOVA, Dunnett test) was “higher uptake”, the “T/B (tumor-to-blood ratio)” value (LNCaP xenografts [1]; [4]) was 0.92 ± 0.24 and the “T/K (tumor-to-kidney ratio)” value (LNCaP xenografts [1]; [4]) was 0.17 ± 0.04. The “T/M (tumor-to-muscle ratio)” value (LNCaP xenografts [1]; [4]) was 3.07 ± 0.92, the adrenal uptake (LNCaP xenografts [1]; [4]) was 0.14 ± 0.03 %ID/g and the blood uptake (LNCaP xenografts [1]; [4]) was 0.39 ± 0.07 %ID/g. For the same compound, the bone uptake (LNCaP xenografts [1]; [4]) was 0.15 ± 0.02 %ID/g, the brain uptake (LNCaP xenografts [1]; [4]) was 0.01 ± 0.00 %ID/g and the fat uptake (LNCaP xenografts [1]; [4]) was 0.06 ± 0.02 %ID/g. For the same compound, the heart uptake (LNCaP xenografts [1]; [4]) was 0.13 ± 0.01 %ID/g, the intestine uptake (LNCaP xenografts [1]; [4]) was 0.26 ± 0.05 %ID/g and the kidney uptake (LNCaP xenografts [1]; [4]) was 2.19 ± 0.44 %ID/g. For the same compound, the liver uptake (LNCaP xenografts [1]; [4]) was 0.16 ± 0.04 %ID/g, the lung uptake (LNCaP xenografts [1]; [4]) was 0.33 ± 0.06 %ID/g and the muscle uptake (LNCaP xenografts [1]; [4]) was 0.13 ± 0.06 %ID/g. For the same compound, the pancreas uptake (LNCaP xenografts [1]; [4]) was 0.09 ± 0.03 %ID/g, the spleen uptake (LNCaP xenografts [1]; [4]) was 0.12 ± 0.04 %ID/g and the stomach uptake (LNCaP xenografts [1]; [4]) was 0.09 ± 0.04 %ID/g. The testes uptake (LNCaP xenografts [1]; [4]) was 0.18 ± 0.09 %ID/g, the tumor uptake (LNCaP xenografts [1]; 1 h after injection, unblocked, listed as 8) was 16.7 ± 2.7 %ID/g and the tumor uptake (LNCaP xenografts [1]; 1 h after injection, unblocked, listed as [18F]8) was 16.66 ± 2.74 %ID/g. It also gave a tumor uptake (LNCaP xenografts [1]; [4]) of 0.35 ± 0.03 %ID/g, a LogD7.4 [2] of −3.58 ± 0.36 and a Ki (PSMA) of 0.22 ± 0.01 nM. The “accumulation in the liver” value (LNCaP xenografts [3]; PET/CT) was “no significant accumulation in the liver” and the “clearance / excretion pathway” value (LNCaP xenografts [3]; imaging and biodistribution) was “no hepatobiliary excretion”.
